Laboratory results from the NIST ThermoML archive (doi:10.1016/j.jct.2017.11.002).
± gives the expanded uncertainty stated by the source.

Columns and labels:
[1] = molar enthalpy of vaporization or sublimation; settings: 298.15 K; Crystal; Static calorimetry
[2] = Crystal, Calculated from knudsen effusion weight loss

| molar enthalpy [1] [kcal/mol] | vapor or sublimation pressure ([2]; 394.16 K) [kPa] | vapor or sublimation pressure ([2]; 396.13 K) [kPa] | vapor or sublimation pressure ([2]; 398.11 K) [kPa] | vapor or sublimation pressure ([2]; 400.15 K) [kPa] | vapor or sublimation pressure ([2]; 402.1 K) [kPa] | vapor or sublimation pressure ([2]; 404.1 K) [kPa] | vapor or sublimation pressure ([2]; 406.15 K) [kPa] | vapor or sublimation pressure ([2]; 408.13 K) [kPa] | vapor or sublimation pressure ([2]; 410.11 K) [kPa] | vapor or sublimation pressure ([2]; 412.16 K) [kPa] | vapor or sublimation pressure ([2]; 414.11 K) [kPa] | vapor or sublimation pressure ([2]; 416.12 K) [kPa] | Compound |
| --- | --- | --- | --- | --- | --- | --- | --- | --- | --- | --- | --- | --- | --- |
| 31.9 ± 1 | – | – | – | – | – | – | – | – | – | – | – | – | O=c1c2ccccc2[nH]c2ccccc12 [9(10H)-acridinone] |
| 29.6 ± 0.693 | 0.0001465 ± 6e-05 | 0.0001788 ± 6e-05 | 0.0002123 ± 6.1e-05 | 0.0002508 ± 6.1e-05 | 0.0003035 ± 6.1e-05 | 0.0003591 ± 6.1e-05 | 0.0004322 ± 6.2e-05 | 0.000516 ± 6.3e-05 | 0.0005963 ± 6.4e-05 | 0.0007321 ± 6.5e-05 | 0.0008616 ± 6.7e-05 | 0.00101 ± 9.3e-05 | Cn1c2ccccc2c(=O)c2ccccc21 [N-methylacridone] |
